# Measurements as given in patent publication US6376617B1, “Bioactive derivatives of camptothecin” (Pharmacia & Upjohn S.p.A., priority 1997, dated 2002).
# System: human colon carcinoma (HT29)
# Test: Antitumor activity on human colon carcinoma (HT29) transplanted in nude mice
# Conditions: HT29 sc in nude mice; for TI% 46th day (tumor inhibition %): day 46
# Experimental: Tumor fragment were implanted sc. Treatment started when tumor was palpable. TI % (tumor inhibition %) was calculated at day 46.
# [1] = iv q4dx6, dose 20 mg/kg, total dose 120 mg/kg
Molecule,Tox [1],TI% 46th day (tumor inhibition %) [1] [%],"TI% 46th day (tumor inhibition %) (iv q4dx8, dose 5 mg/kg, total dose 40 mg/kg) [%]","TI% 46th day (tumor inhibition %) (iv q4dx8, dose 10 mg/kg, total dose 80 mg/kg) [%]","TI% 46th day (tumor inhibition %) (iv q4dx8, dose 20 mg/kg, total dose 160 mg/kg) [%]"
"CCc1c2c(nc3ccc(O)cc13)-c1cc3c(c(=O)n1C2)COC(=O)[C@]3(O)CC [1a, 7-ethyl-10-hydroxycamptothecin, reference compound]",1/7,97,–,–,–
"copolymer of N-(2-hydroxypropyl)methacrylamide, {7-ethyl-10-hydroxy-20-O-[N-methacryloyl-glycyl-L-phenylalanyl-L-leucyl-glycyl]camptothecin} and N-(2-hydroxypropyl)methacryloylglycinamide [A1]",–,–,77,91,98
